Patent US7632506B2, “Identification of new NY-ESO-1 epitopes recognized by CD4+ T-cells” (Ludwig Institute for Cancer Research, priority 2005, dated 2009)

Experiments:
CD8+ T-cells = assay: ELISPOT of CD8+ T-cells presensitized with Ad2/ESO infected PBMC; format: cell-based, human
Description: To examine the possibility that one of the novel MHC class II epitopes described in this study may also represent an MHC class I binding peptide epitope, CD8^+ T-cells from the patients described above, were presensitized with autologous CD4^−/CD8^− PBMC infected with the recombinant adenovirus Ad2/ESO. Responder T-cells were tested in ELISPOT assays for recognition of autologous APC's pulsed with the 28 overlapping 18 mer peptides described in Table 2.

[1] = tested on: CD4+ T cell clones NW2337-CD4-1 and NW2337-CD4-10; assay: Peptide titration ELISPOT assay with overlapping NY-ESO-1 peptides; format: cell-based, human; details: peptide 10 μM to 0.1 nM pulsed onto autologous EBV-B-cells
Description: The CD4^+ T cells were restimulated weekly with 1 μg/ml of the peptide being used. On day 12, each CD4^+ culture was assayed for NY-ESO-1 peptide recognition, using the ELISPOT assay of lager, et al., Proc. Natl. Acad. Sci. USA, 97(9):4760-4765 (2000), incorporated by reference. To elaborate on this procedure, flat-bottomed, 96-well nitrocellulose plates were coated with 5 μg/ml of anti-interferon-gamma antibody and incubated overnight at 4° C. After washing with PBS, plates were blocked with 10% human serum (HS) for 1 hour at 37° C. Depending on the effector:target ratio used, various numbers of presensitized CD4^+ T-cells were added to each well along with 5×10^4 autologous peptide pulsed EBV transfected B cells (“EBV-B cells”) serving as target cells and incubated for 16 hours at 37° C. in TCM without IL-2. Plates were then washed extensively (6 times with a solution of 0.05% Tween 20/PBS), and biotinylated anti-interferon-gamma detection antibody was added at a concentration of 0.5 μg/ml. After incubation for 2 h at 37° C., plates were washed and incubated with ABC-AP Vectastain for 1 hour. Plates were washed again and developed with substrate (BCIP/NPT) until blue spots were visible. The number of blue spots/well represented the proportion of NY-ESO-1 specific CD4^+ T-cells/well was finally counted under the microscope.
To further identify the exact epitope required for CD4^+ T cell recognition by these two CD4^+ T cell clones, a peptide titration assay was performed using overlapping NY-ESO-1 peptides (FIG. 2) at concentrations between 10 μM and 0.1 nM, pulsed onto autologous EBV-B-cells and tested in ELISPOT assays (FIG. 3).

HLA-DQB1 03011 = target: T1, HLA-DQB1 03011 (Homo sapiens, UniProt P01909+P01920); assay: ELISPOT with peptide pulsed allogeneic EBV-B-cells of known HLA class II type (HLA restriction); format: cell-based
T1 construct: peptide pulsed allogeneic EBV-B-cells with known HLA class II types as stimulator cells; endogenous in cells; host or cells: allogeneic patient-derived EBV-transformed B-cell lines (NW-2078, NW-2081, NW-2395, NW-2234, NW-2337, NW-1100, MZ-1257)
T1 sequence (P01920 33-261, other chains not shown): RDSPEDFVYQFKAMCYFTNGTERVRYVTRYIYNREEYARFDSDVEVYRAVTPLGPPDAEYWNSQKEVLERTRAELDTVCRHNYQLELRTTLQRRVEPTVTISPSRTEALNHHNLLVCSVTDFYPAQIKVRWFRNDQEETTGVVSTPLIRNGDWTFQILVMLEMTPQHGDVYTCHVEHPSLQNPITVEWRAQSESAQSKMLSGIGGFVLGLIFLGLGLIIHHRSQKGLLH
Description: In order to determine the HLA molecule to which the novel NY-ESO-1 peptides described above bind, the NW2337 CD4^+ T-cell clones NW2337-CD4-1 and NW2337-CD4-10, were tested in ELISPOT assays using a range of peptide pulsed allogeneic EBV-B-cells with known HLA class II types as stimulator cells as indicated in the following Table. The EBV-B-cell lines were HLA typed using standard methods as described above.
The NW2337-CD4-1 clone recognized allogenic peptide pulsed EBV-B cells from patients NW-2078, NW-2081, NW-2395, NW-2234, NW-2337, NW-1100 and MZ-1257. The allogenic EBV-B cells were recognized by the T cells when pulsed exogenously with either the NY-ESO-1 p49-66 or p55-72 as observed with autologous EBV-B cells described above. […] None of the EBV-B-cells lines that were not recognized by the T cells expressed this MHC allele. […] Again the NY-ESO-1 positive MZ-1257 EBV-B-cell line was recognized with or without exogenous peptide.

[2] = tested on: CD4+ T cell clones NW2337-CD4-1 and NW2337-CD4-10; assay: 51Cr release assay with peptide-pulsed EBV-B target cells; format: cell-based, human
Description: In these experiments, exemplary clones NY-ESO-1 p49-66 specific CD4^+ T cell clone NW2337-CD4-1 and NY-ESO-1 p55-72 specific CD4^+ T cell clone NW2337-CD4-10 were characterized in ^51Chromium (^51Cr) release assays using peptides overlapping the sequence of each stimulation peptide. Standard ^51Cr release assay methods were used. Briefly, autologous EBV B cell target cells were labeled with 100 μCi Na2^51CrO4 for 2 hours, and pulsed with 18 mer or 20 mer NY-ESO-1 peptides (10 μg/ml) for 1 hour. Then, 1×10^3 target cells/well were incubated in 96 V- bottom microwell plates with effector cells at different E/T ratios for 4 h at 37° C. ^51Cr release was measured in the supernatant and the specific cytotoxicity was calculated using the standard methods. Polyclonal T-cell populations were preincubated with unlabeled K562 cells as competitors at a concentration of 40:1 in order to block non-specific effector reactions.
These experiments confirmed recognition of naturally presented NY-ESO-1 epitopes by the CD4+ T-cell clones.

NW2337 CD4+ T cells = assay: Cytokine ELISPOT assays (IFNγ, TNFα, IL4, IL10) of NW2337 CD4+ T cells; format: cell-based, human
From the text: All ELISPOT assay described, supra were designed to detect IFN-γ secretion by the T cell clones following specific antigen stimulation. To determine the phenotype of the NY-ESO-1 specific CD4^+ T cell clones from patient NW2337, additional ELISPOT assays were designed to detect additional cytokines.
The NW2337 CD4^+ T cells were stimulated with either NY-ESO-1 p49-66 and p55-72 peptides and T cells secretion of IFNγ, TNFα, IL4 and IL10measured by ELISPOT assay. […] IL4 and IL10 was not secreted by any of the NY-ESO-1 specific CD4^+ T-cell clones tested following stimulation with NY-ESO-1 p49-66 and p55-72 peptides.

For “P55-72: synthetic 18 mer peptide, amino acids 55-72 of NY-ESO-1 (GPGGGAPRGPHGGAASGL; UniProt P78358 55-72, looked up, fragment) [Peptide P55-72]”, the “NW1454 CD8+ T-cell recognition of peptide pulsed T2-A3 and HLA-A3 expressing NW115 EBV-B-cell target cells” value (CD8+ T-cells) was “recognition”, the “recognition by CD8+ T-cells” value (CD8+ T-cells; CD8+ T-cells from patient NW1231, NW1454 and NW2427, autologous APC's pulsed with peptide) was “observed” and the “HLA class I molecule presenting the peptide” value (CD8+ T-cells; only shared HLA class I allele of the three patients) was “HLA-A3”. The “recognition by clone NW2337-CD4-1” value [1] was “recognized”, the “recognition by clone NW2337-CD4-10” value [1] was “able to recognize” and the “MHC class II allele presenting the peptide to NW2337-CD4-10 T cells” value (HLA-DQB1 03011; only HLA-DQB1 03011 expressing allogenic EBV-B cell lines recognized) was “HLA-DQB1 03011”. For the same substance, the “MHC class II allele presenting the peptide to NW2337-CD4-1 T cells” value (HLA-DQB1 03011; only shared allele of the recognized peptide pulsed allogenic EBV-B cell lines) was “HLA-DQB1 03011”, the “lysis of peptide pulsed autologous NW-2337-EBV B-cell lines by clones NW-2337-CD4-3 and -10” value [2] was “efficiently lysed” and the “recognition by clone NW2337-CD4-1” value ([2]; autologous EBV B cells pulsed with peptide 10 μg/ml, clone generated with p49-66) was “crossreacted”. For the same substance, the “recognition by clone NW2337-CD4-10” value ([2]; autologous EBV B cells pulsed with peptide 10 μg/ml, clone generated with p55-72) was “recognized”, the “IFN-γ secretion by stimulated T cell clones” value (NW2337 CD4+ T cells) was “produced” and the “IL4 secretion by stimulated T cell clones” value (NW2337 CD4+ T cells) was “not secreted”. The “IL10 secretion by stimulated T cell clones” value (NW2337 CD4+ T cells) was “not secreted” and the “TNF-α secretion by stimulated T cell clones” value (NW2337 CD4+ T cells) was “produced”.
